Results reported in US20210353631A1, “1,4-Benzoxazines for the Treatment of Cancers and Other Neurodegenerative Diseases” (Neugeneron LLC, priority 2020, published 2021).
Read-outs that look alike come from different tables or passages of the source. One block for each molecule: values may come before it.

What was measured:
[1] = test system: panel of 20 kinases; conditions: 500 nM; previous analyses; cited from earlier work
[2] = test system: fly model of AD; conditions: widely-used fly model of AD; cited from earlier work
[3] = biological target: p38 MAPK; conditions: kinome profiling studies; cited from earlier work
[4] = test system: mouse model of HD; conditions: cited from earlier work
[5] = biological target: cyclin-dependent kinases (CDKs); conditions: kinome profiling studies; cited from earlier work
[6] = biological target: T1, GSK3β (Homo sapiens, UniProt P49841); conditions: kinome profiling studies; cited from earlier work
[7] = test system: cell culture models of neurodegeneration; conditions: cited from earlier work
[8] = biological target: T2, CSNK1G3 (Homo sapiens, UniProt Q9Y6M4); experiment: KINOMEscan kinome profiling (DiscoveRx/Eurofin platform); assay type: binding; conditions: read-out: % control
T2 construct: purchased DiscoveRx/Eurofin

[9] = biological target: T3, EGFR(G719S) (Homo sapiens, UniProt P00533, G719S); experiment: as above; assay type: binding; conditions: read-out: % control
T3 construct: purchased DiscoveRx/Eurofin

[10] = biological target: T4, DRAK1/STK17a (Homo sapiens, UniProt Q9UEE5); experiment: as above; assay type: binding; conditions: KINOMEscan DRAK1 (Entrez STK17A), read-out: % control
T4 construct: purchased DiscoveRx/Eurofin

[11] = biological target: T5, DRAK2 (STK17B) (Homo sapiens, UniProt O94768); experiment: as above; assay type: binding
T5 construct: purchased DiscoveRx/Eurofin

[12] = test system: cerebellar granule neurons (CGNs); experiment: Neuroprotection in cerebellar granule neurons switched from HK to LK medium; assay type: cell-based; conditions: 1, 5 and 25 uM, viability 24 h later, single experiment in duplicate
Procedure: (§1) FIGS. 1A to 1C, show: (FIG. 1A) Chemical structure of NGN-006. (FIG. 1B) Neuroprotection in cerebellar granule neurons (CGNs) induced to die by switching from high potassium (HK) to low potassium (LK) medium. HSB-13 and NGN-006 were added to LK-treated CGNs at 1, 5 and 25 uM concentrations. Viability was measured 24 h later and compared with control survival in HK). Results are means values from a single experiment performed in duplicate. […] (FIG. 1C) Neuroprotection in cortical neurons (CGNs) induced to die by treatment with homocysteic acid (HCA) which induces oxidative stress. Neurons were treated either with HCA alone or HCA with 25 uM HSB-13 or 5 uM and 25 uM NGN-006 for 18 h. Viability was measured 24 h later and compared with survival of control (untreated cells, Unt). Results are mean values from a single experiment performed in duplicate.
(§2) Based on the structure of HSB-13 addition compounds have been synthesized. Among these derivatives was NGN-006 (FIG. 1A). […] Viability was measured 24 h later and compared with control survival in HK). […] Viability was measured 24 h later and compared with survival of control (untreated cells, Unt). […]

[13] = biological target: T6, CLK2 (Homo sapiens, UniProt P49760); experiment: KINOMEscan kinome profiling (DiscoveRx/Eurofin platform); assay type: binding; conditions: read-out: % control
T6 construct: purchased DiscoveRx/Eurofin

[14] = biological target: T1, GSK3β; experiment: Kinome profiling of NGN-006; assay type: binding; conditions: kinase that HSB-13 inhibits
[15] = biological target: T7, CSNK1D (Homo sapiens, UniProt P48730); experiment: KINOMEscan kinome profiling (DiscoveRx/Eurofin platform); assay type: binding; conditions: read-out: % control
T7 construct: purchased DiscoveRx/Eurofin

[16] = biological target: T8, CSNK2A2 (Homo sapiens, UniProt P19784); experiment: as above; assay type: binding; conditions: read-out: % control
T8 construct: purchased DiscoveRx/Eurofin

[17] = biological target: T9, DDR1 (Homo sapiens, UniProt Q08345); experiment: as above; assay type: binding; conditions: read-out: % control
T9 construct: purchased DiscoveRx/Eurofin

[18] = biological target: T10, EGFR(L747-S752del, P753S) (Homo sapiens, UniProt P00533, DEL747-752/P753S); experiment: as above; assay type: binding; conditions: read-out: % control
T10 construct: purchased DiscoveRx/Eurofin

[19] = biological target: T11, DMPK (Homo sapiens, UniProt Q09013); experiment: as above; assay type: binding; conditions: read-out: % control
T11 construct: purchased DiscoveRx/Eurofin

[20] = biological target: T12, EGFR(E746-A750del) (Homo sapiens, UniProt P00533, DEL746-750); experiment: as above; assay type: binding; conditions: read-out: % control
T12 construct: purchased DiscoveRx/Eurofin

[21] = biological target: T13, CSF1R (Homo sapiens, UniProt P07333); experiment: as above; assay type: binding; conditions: read-out: % control
T13 construct: purchased DiscoveRx/Eurofin

[22] = biological target: T14, CSNK1G1 (Homo sapiens, UniProt Q9HCP0); experiment: as above; assay type: binding; conditions: read-out: % control
T14 construct: purchased DiscoveRx/Eurofin

[23] = biological target: T15, CLK4 (Homo sapiens, UniProt Q9HAZ1); experiment: as above; assay type: binding; conditions: read-out: % control
T15 construct: purchased DiscoveRx/Eurofin

[24] = biological target: T16, CIT (Homo sapiens, UniProt O14578); experiment: as above; assay type: binding; conditions: read-out: % control
T16 construct: purchased DiscoveRx/Eurofin

[25] = biological target: T17, CSNK1E (Homo sapiens, UniProt P49674); experiment: as above; assay type: binding; conditions: read-out: % control
T17 construct: purchased DiscoveRx/Eurofin

[26] = biological target: T18, CLK3 (Homo sapiens, UniProt P49761); experiment: as above; assay type: binding; conditions: read-out: % control
T18 construct: purchased DiscoveRx/Eurofin

[27] = biological target: T19, CSNK1A1 (Homo sapiens, UniProt P48729); experiment: as above; assay type: binding; conditions: read-out: % control
T19 construct: purchased DiscoveRx/Eurofin

[28] = biological target: T20, CLK1 (Homo sapiens, UniProt P49759); experiment: as above; assay type: binding; conditions: read-out: % control
T20 construct: purchased DiscoveRx/Eurofin

[29] = biological target: other members of the DAPK family; experiment: Kinome profiling of NGN-006; assay type: binding
[30] = test system: cortical neurons; experiment: Neuroprotection in cortical neurons treated with homocysteic acid (HCA); assay type: cell-based; conditions: cortical neurons treated with HCA (oxidative stress); 5 uM and 25 uM for 18 h; single experiment in duplicate
Procedure: as §1, §2

[31] = biological target: T21, CSNK1G2 (Homo sapiens, UniProt P78368); experiment: KINOMEscan kinome profiling (DiscoveRx/Eurofin platform); assay type: binding; conditions: read-out: % control
T21 construct: purchased DiscoveRx/Eurofin

[32] = biological target: T22, DDR2 (Homo sapiens, UniProt Q16832); experiment: as above; assay type: binding; conditions: read-out: % control
T22 construct: purchased DiscoveRx/Eurofin

[33] = biological target: CDKs; experiment: Kinome profiling of NGN-006; assay type: binding; conditions: kinases that HSB-13 inhibits
[34] = biological target: p38 MAPK; experiment: Kinome profiling of NGN-006; assay type: binding; conditions: kinase that HSB-13 inhibits
[35] = biological target: T23, DLK (MAP3K12) (Homo sapiens, UniProt Q12852); experiment: KINOMEscan kinome profiling (DiscoveRx/Eurofin platform); assay type: binding; conditions: KINOMEscan DLK (Entrez MAP3K12), read-out: % control
T23 construct: purchased DiscoveRx/Eurofin

[36] = biological target: T24, EGFR(G719C) (Homo sapiens, UniProt P00533, G719C); experiment: as above; assay type: binding; conditions: read-out: % control
T24 construct: purchased DiscoveRx/Eurofin

[37] = biological target: T25, CSF1R -autoinhibited (Homo sapiens, UniProt P07333); experiment: as above; assay type: binding; conditions: read-out: % control
T25 construct: purchased DiscoveRx/Eurofin

[38] = biological target: T26, DYRK2 (Homo sapiens, UniProt Q92630); experiment: as above; assay type: binding; conditions: read-out: % control
T26 construct: purchased DiscoveRx/Eurofin

[39] = biological target: T27, DCAMKL1 (DCLK1) (Homo sapiens, UniProt O15075); experiment: as above; assay type: binding; conditions: KINOMEscan DCAMKL1 (Entrez DCLK1), read-out: % control
T27 construct: purchased DiscoveRx/Eurofin

[40] = biological target: T28, DCAMKL2 (DCLK2) (Homo sapiens, UniProt Q8N568); experiment: as above; assay type: binding; conditions: KINOMEscan DCAMKL2 (Entrez DCLK2), read-out: % control
T28 construct: purchased DiscoveRx/Eurofin

[41] = test system: EGFR(L747-T751del,Sins); experiment: as above; assay type: binding; conditions: 1 uM
[42] = test system: 451 kinases; experiment: Kinome profiling, count of kinases inhibited in the whole panel; assay type: binding; conditions: substantially defined as over 36% inhibition at 1 uM
[43] = biological target: T29, EGFR(L747-E749del, A750P) (Homo sapiens, UniProt P00533, A750P/DEL747-749); experiment: KINOMEscan kinome profiling (DiscoveRx/Eurofin platform); assay type: binding; conditions: read-out: % control
T29 construct: purchased DiscoveRx/Eurofin

[44] = biological target: T30, CTK (MATK) (Homo sapiens, UniProt P42679); experiment: as above; assay type: binding; conditions: KINOMEscan CTK (Entrez MATK), read-out: % control
T30 construct: purchased DiscoveRx/Eurofin

[45] = biological target: T31, DYRK1A (Homo sapiens, UniProt Q13627); experiment: as above; assay type: binding; conditions: read-out: % control
T31 construct: purchased DiscoveRx/Eurofin

[46] = biological target: T32, DYRK1B (Homo sapiens, UniProt Q9Y463); experiment: as above; assay type: binding; conditions: read-out: % control
T32 construct: purchased DiscoveRx/Eurofin

[47] = biological target: T33, CSK (Homo sapiens, UniProt P41240); experiment: as above; assay type: binding; conditions: read-out: % control
T33 construct: purchased DiscoveRx/Eurofin

[48] = biological target: T34, CSNK2A1 (Homo sapiens, UniProt P68400); experiment: as above; assay type: binding; conditions: read-out: % control
T34 construct: purchased DiscoveRx/Eurofin

[49] = biological target: T35, DAPK2 (Homo sapiens, UniProt Q9UIK4); experiment: as above; assay type: binding; conditions: read-out: % control
T35 construct: purchased DiscoveRx/Eurofin

[50] = biological target: T36, DAPK3 (Homo sapiens, UniProt O43293); experiment: as above; assay type: binding; conditions: read-out: % control
T36 construct: purchased DiscoveRx/Eurofin

[51] = biological target: T37, DAPK1 (Homo sapiens, UniProt P53355); experiment: as above; assay type: binding; conditions: read-out: % control
T37 construct: purchased DiscoveRx/Eurofin

[52] = biological target: T38, EGFR (Homo sapiens, UniProt P00533); experiment: as above; assay type: binding; conditions: read-out: % control
T38 construct: purchased DiscoveRx/Eurofin

[53] = biological target: T39, DCAMKL3 (DCLK3) (Homo sapiens, UniProt Q9C098); experiment: as above; assay type: binding; conditions: KINOMEscan DCAMKL3 (Entrez DCLK3), read-out: % control
T39 construct: purchased DiscoveRx/Eurofin

[54] = biological target: T40, CSNK1A1L (Homo sapiens, UniProt Q8N752); experiment: as above; assay type: binding; conditions: read-out: % control
T40 construct: purchased DiscoveRx/Eurofin

[55] = biological target: T41, DMPK2 (CDC42BPG) (Homo sapiens, UniProt Q6DT37); experiment: as above; assay type: binding; conditions: KINOMEscan DMPK2 (Entrez CDC42BPG), read-out: % control
T41 construct: purchased DiscoveRx/Eurofin

T5 sequence (O94768 whole entry): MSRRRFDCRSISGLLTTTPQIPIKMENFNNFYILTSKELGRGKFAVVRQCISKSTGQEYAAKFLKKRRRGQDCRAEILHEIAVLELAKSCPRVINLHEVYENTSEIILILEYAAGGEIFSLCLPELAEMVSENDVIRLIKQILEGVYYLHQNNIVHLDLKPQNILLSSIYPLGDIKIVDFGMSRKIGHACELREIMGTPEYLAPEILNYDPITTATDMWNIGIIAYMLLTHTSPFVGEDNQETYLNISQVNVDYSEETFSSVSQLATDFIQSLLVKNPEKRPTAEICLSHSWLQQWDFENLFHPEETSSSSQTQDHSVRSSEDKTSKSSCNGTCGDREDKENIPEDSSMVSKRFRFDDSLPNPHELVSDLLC
T1 sequence (P49841 whole entry): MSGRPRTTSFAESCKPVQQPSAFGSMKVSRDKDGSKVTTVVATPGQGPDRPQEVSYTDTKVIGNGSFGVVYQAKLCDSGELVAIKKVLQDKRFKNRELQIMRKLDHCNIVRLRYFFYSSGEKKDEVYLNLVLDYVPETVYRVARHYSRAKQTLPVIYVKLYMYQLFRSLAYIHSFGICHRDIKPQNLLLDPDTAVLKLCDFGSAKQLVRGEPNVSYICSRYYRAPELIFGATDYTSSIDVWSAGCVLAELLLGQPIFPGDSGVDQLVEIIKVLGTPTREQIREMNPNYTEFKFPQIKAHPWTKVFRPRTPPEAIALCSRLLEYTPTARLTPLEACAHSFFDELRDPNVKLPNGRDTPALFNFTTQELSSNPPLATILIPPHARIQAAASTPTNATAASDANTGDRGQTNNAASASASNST
T15 sequence (Q9HAZ1 whole entry): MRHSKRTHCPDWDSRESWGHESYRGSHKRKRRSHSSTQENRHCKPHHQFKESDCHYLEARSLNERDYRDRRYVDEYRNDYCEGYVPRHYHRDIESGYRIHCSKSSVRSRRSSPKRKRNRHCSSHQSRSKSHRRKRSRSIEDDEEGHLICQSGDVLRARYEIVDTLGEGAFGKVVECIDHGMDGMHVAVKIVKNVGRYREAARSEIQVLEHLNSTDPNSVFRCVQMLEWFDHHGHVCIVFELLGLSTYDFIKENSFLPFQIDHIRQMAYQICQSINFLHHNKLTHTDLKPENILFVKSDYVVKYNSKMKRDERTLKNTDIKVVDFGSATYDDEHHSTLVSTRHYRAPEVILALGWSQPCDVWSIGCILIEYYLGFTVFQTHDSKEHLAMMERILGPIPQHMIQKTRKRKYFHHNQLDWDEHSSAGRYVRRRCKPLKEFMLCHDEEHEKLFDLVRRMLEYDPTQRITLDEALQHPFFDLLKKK
T29 sequence (P00533 with tags, fused parts or gaps DEL747-749/A750P): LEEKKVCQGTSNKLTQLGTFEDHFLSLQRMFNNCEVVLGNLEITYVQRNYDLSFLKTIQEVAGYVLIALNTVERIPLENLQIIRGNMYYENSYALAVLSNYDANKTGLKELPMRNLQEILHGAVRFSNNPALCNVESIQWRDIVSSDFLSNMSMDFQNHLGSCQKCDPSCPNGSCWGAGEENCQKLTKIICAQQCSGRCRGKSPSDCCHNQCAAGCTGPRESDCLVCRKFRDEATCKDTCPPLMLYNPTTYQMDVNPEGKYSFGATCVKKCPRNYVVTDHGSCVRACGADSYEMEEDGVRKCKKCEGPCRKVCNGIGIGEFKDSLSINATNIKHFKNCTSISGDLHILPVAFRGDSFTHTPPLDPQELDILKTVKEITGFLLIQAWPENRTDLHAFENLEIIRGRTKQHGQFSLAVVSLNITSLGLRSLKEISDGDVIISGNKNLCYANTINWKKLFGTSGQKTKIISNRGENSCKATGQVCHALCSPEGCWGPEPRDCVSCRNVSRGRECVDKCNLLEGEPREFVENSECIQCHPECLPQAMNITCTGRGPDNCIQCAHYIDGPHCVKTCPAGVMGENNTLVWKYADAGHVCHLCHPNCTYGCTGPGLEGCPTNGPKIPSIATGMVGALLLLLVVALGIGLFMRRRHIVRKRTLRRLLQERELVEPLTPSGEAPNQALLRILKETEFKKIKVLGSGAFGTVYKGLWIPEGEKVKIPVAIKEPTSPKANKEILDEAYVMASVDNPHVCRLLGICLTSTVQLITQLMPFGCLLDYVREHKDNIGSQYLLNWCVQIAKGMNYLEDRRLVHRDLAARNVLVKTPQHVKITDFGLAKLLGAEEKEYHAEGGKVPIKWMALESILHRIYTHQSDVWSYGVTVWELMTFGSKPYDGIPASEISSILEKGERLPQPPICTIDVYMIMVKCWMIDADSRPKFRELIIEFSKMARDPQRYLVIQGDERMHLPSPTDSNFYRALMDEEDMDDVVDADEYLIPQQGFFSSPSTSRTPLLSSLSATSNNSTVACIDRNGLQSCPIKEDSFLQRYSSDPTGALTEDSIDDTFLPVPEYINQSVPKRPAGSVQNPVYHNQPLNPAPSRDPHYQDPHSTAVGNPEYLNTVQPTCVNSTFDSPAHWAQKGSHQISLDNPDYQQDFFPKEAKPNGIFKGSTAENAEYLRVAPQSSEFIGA
T17 sequence (P49674 whole entry): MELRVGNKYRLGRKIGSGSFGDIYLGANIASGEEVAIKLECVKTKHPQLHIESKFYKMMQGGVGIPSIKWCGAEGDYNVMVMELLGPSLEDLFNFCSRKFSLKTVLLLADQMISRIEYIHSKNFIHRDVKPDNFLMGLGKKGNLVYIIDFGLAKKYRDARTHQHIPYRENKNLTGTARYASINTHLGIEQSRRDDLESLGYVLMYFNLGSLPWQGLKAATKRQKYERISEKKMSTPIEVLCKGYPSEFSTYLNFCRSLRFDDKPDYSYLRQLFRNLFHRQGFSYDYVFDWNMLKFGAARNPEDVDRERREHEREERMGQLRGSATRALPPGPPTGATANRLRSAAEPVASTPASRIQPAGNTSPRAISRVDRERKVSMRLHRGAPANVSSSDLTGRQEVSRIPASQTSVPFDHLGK
T37 sequence (P53355 whole entry): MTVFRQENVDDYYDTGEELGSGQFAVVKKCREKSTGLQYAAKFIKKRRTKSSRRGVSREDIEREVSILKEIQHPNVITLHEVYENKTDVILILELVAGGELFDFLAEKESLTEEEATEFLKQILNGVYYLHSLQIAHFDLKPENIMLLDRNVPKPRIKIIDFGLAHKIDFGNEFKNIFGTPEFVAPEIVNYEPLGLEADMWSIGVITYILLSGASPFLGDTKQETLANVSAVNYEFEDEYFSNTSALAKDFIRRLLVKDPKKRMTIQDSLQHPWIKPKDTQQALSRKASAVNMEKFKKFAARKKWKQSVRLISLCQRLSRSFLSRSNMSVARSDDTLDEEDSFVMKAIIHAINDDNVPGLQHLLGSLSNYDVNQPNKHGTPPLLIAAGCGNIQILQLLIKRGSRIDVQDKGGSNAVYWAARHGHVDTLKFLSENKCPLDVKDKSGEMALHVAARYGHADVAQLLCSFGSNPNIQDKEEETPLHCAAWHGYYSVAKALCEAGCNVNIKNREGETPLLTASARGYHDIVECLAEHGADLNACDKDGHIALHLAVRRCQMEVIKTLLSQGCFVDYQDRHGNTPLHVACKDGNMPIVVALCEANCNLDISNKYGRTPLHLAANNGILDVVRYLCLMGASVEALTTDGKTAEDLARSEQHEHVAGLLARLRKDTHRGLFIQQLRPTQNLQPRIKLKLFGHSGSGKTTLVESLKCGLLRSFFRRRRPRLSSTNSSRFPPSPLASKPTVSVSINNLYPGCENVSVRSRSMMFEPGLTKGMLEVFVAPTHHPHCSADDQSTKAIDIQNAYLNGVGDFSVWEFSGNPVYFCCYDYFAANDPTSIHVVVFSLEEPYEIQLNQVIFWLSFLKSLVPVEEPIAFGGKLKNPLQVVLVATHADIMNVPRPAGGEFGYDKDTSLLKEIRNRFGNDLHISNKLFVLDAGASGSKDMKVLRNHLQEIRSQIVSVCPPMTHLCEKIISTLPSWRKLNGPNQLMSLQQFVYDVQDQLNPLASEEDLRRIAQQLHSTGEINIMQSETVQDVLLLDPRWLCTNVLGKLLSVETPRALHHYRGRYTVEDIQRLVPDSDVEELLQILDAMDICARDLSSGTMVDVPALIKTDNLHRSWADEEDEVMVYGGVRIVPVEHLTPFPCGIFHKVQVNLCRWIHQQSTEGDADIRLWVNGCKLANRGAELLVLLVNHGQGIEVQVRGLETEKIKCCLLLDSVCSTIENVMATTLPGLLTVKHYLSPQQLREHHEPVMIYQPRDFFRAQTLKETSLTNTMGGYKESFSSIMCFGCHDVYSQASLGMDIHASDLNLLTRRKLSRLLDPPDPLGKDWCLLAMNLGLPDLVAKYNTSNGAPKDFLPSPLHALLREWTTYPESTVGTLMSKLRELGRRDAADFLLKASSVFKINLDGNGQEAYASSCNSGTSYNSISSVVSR
T26 sequence (Q92630 whole entry): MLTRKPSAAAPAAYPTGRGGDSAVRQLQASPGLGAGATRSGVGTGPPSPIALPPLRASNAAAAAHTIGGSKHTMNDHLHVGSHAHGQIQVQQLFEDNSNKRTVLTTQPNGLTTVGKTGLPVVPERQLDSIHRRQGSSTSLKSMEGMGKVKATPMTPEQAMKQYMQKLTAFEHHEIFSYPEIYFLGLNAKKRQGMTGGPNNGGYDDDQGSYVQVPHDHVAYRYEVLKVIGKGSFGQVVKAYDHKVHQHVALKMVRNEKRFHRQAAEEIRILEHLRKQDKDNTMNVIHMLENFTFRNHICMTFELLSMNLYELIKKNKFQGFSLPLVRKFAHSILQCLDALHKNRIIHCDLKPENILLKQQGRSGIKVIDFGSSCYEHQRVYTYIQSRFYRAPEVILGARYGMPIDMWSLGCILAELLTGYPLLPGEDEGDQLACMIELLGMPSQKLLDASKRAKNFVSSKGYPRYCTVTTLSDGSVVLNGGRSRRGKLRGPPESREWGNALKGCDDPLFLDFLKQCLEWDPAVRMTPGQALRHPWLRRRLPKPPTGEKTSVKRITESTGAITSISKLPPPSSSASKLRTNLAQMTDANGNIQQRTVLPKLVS

SMILES: Nc1ccc2c(c1)NC(=O)/C(=C/c1cc(Br)c(O)c(Br)c1)O2 [HSB-13]
kinases inhibited out of a panel of 20 kinases [1]: 3
protection [2]: protective
kinase inhibition (in words) [3]: most inhibited
behavioral performance [4]: improved behavioral performance
neurodegeneration [4]: prevented neurodegeneration
kinase inhibition (in words) [5]: most inhibited
kinase inhibition (in words) [6]: most inhibited
protection against neuronal loss [7]: protective

remaining binding at 1 µM [8]: 84%
remaining binding at 1 µM [9]: 98%
remaining binding at 1 µM [10]: 26%
remaining binding at 1 µM ([11]; KINOMEscan DRAK2 (Entrez STK17B), 1 uM, read-out: % control): 83%
kinase inhibition (in words) ([11]; closely-related DRAK2 protein): not inhibited
remaining binding at 1 µM [13]: 100%
kinase inhibition (in words) [14]: does not inhibit
remaining binding at 1 µM [15]: 100%
remaining binding at 1 µM [16]: 100%
remaining binding at 1 µM [17]: 100%
remaining binding at 1 µM [18]: 100%
remaining binding at 1 µM [19]: 100%
remaining binding at 1 µM [20]: 100%
remaining binding at 1 µM [21]: 100%
remaining binding at 1 µM [22]: 100%
remaining binding at 1 µM [23]: 100%
remaining binding at 1 µM [24]: 100%
remaining binding at 1 µM [25]: 89%
remaining binding at 1 µM [26]: 92%
remaining binding at 1 µM [27]: 100%
remaining binding at 1 µM [28]: 79%
kinase inhibition (in words) [29]: not inhibited
remaining binding at 1 µM [31]: 100%
remaining binding at 1 µM [32]: 100%
kinase inhibition (in words) [33]: does not inhibit
kinase inhibition (in words) [34]: does not inhibit
remaining binding at 1 µM [35]: 100%
remaining binding at 1 µM [36]: 100%
remaining binding at 1 µM [37]: 100%
remaining binding at 1 µM [38]: 100%
remaining binding at 1 µM [39]: 100%
remaining binding at 1 µM [40]: 98%
remaining binding at 1 µM [43]: 92%
remaining binding at 1 µM [44]: 100%
remaining binding at 1 µM [45]: 100%
remaining binding at 1 µM [46]: 100%
remaining binding at 1 µM [47]: 97%
remaining binding at 1 µM [48]: 100%
remaining binding at 1 µM [49]: 86%
remaining binding at 1 µM [50]: 88%
remaining binding at 1 µM [51]: 100%
remaining binding at 1 µM [52]: 87%
remaining binding at 1 µM [53]: 100%
remaining binding at 1 µM [54]: 100%
remaining binding at 1 µM [55]: 96%
SMILES: Nc1ccc2c(c1)NC(=O)/C(=C/c1ccc(Cl)cc1)O2 [NGN-006, (2Z)-6-amino-2-[(4-chlorophenyl)methylidene]-3,4-dihydro-2H-1,4-benzoxazin-3-one]
neuroprotection (viability) [12]: protective
neuroprotection (viability) [30]: protective
% control [41]: 100%
kinases inhibited substantially of the 451 kinases tested [42]: only DRAK1/STK17a
